This test concerns Candida albicans. The test can be described thus: in vitro suspension test representing in-use conditions. The class given is cell-based. The note with it: 5 min. Here is the method:
The synergistic activity of the cleanser formulation was assessed using an in vitro suspension test representing in-use conditions. In-use conditions represent the actual consumer use of the cleanser (e.g., dissolved tablet concentrations, temperature, and contact time) versus Candida albicans as a relevant oral organism for the denture wearer. To 150 mL of 40° C. water at time zero, the denture cleanser was added, followed by 2 mL of a 10^8 cfu/mL test suspension. After 5 minutes, an aliquot of the solution was removed, neutralized and plated in order to evaluate the amount or log reduction of the test organism.

Consider `[H]/N=C(\N/C(=N/[H])NCCCCCCNC(=N)NC(=N)Nc1ccc(Cl)cc1)Nc1ccc(Cl)cc1` [Test Formulation 4, 1,6-di-4′-chlorophenyldiguanidohexane], for which the antimicrobial activity entry is listed as “does not demonstrate any antimicrobial activity”.

The values are drawn from patent US20110220154A1, “Dental Appliance Cleanser” (priority 2008, published 2011).
